In Sander's compilation of Henry's law constants:
Where “and” joins values, the source holds several entries; their conditions need not be identical. Equal entries are not always repeated. Values belong to the compound of their own block, whether it stands above or below them.

Key:
[1] = Henry solubility constant Hcp at 298.15 K (mol/(m3 Pa))
[2] = Henry solubility constant Hcp at 293 K (mol/(m3 Pa))
[3] = reference: Bissonette et al. (1990)
[4] = reference: Warner et al. (1980)
[5] = reference: Chiang et al. (1998)
[6] = reference: Pearson and McConnell (1975)
[7] = reference: Yurteri et al. (1987)
[8] = reference: Wolfenden and Williams (1983)
[9] = reference: Murphy et al. (1983a)

Structure (SMILES): C=C(Cl)Cl [1,1-dichloroethene]
Henry solubility constant Hcp [1, 3]: 0.00034 | Henry solubility constant Hcp ([1]; reference: Ervin et al. (1980)): 0.00014 | Henry solubility constant Hcp ([1]; reference: Gossett (1987)): 0.00038 | Henry solubility constant Hcp [1, 4]: 0.00066 | Henry solubility constant Hcp at 293 K [2, 5]: 0.00044 | Henry solubility constant Hcp at 293 K [2, 6]: 6.6e-05 | Henry solubility constant Hcp at 293 K [2, 7]: 0.00013

Structure (SMILES): ClC(Cl)=C(Cl)Cl [tetrachloroethene]
Henry solubility constant Hcp [1, 3]: 0.00062 | Henry solubility constant Hcp ([1]; reference: Chen et al. (2012)): 0.00062 | Henry solubility constant Hcp ([1]; reference: Ervin et al. (1980)): 0.00057 | Henry solubility constant Hcp ([1]; reference: Gossett (1980)): 0.0011 | Henry solubility constant Hcp ([1]; reference: Gossett (1987)): 0.00056 | Henry solubility constant Hcp ([1]; reference: Gossett et al. (1985)): 0.00065 | Henry solubility constant Hcp ([1]; reference: Knauss et al. (2000)): 0.00048 | Henry solubility constant Hcp ([1]; reference: Lincoff and Gossett (1984)): 0.00057 | Henry solubility constant Hcp ([1]; reference: Munz and Roberts (1987)): 0.00054 | Henry solubility constant Hcp ([1]; reference: Park et al. (1997)): 0.00055 | Henry solubility constant Hcp ([1]; reference: Peng and Wan (1997)): 0.00061 | Henry solubility constant Hcp ([1]; reference: Peng and Wan (1998)): 0.00078 | Henry solubility constant Hcp ([1]; reference: Robbins et al. (1993)): 0.00058 | Henry solubility constant Hcp ([1]; reference: Shimotori and Arnold (2003)): 0.00058 | Henry solubility constant Hcp ([1]; reference: Tancrède and Yanagisawa (1990)): 0.00059 | Henry solubility constant Hcp ([1]; reference: Vane and Giroux (2000)): 0.0006 | Henry solubility constant Hcp [1, 4]: 0.00034 | Henry solubility constant Hcp at 293 K [2, 5]: 0.00062 | Henry solubility constant Hcp at 293 K [2, 6]: 0.0005 | Henry solubility constant Hcp at 293 K [2, 7]: 0.00075

Structure (SMILES): CCOP(=O)(OCC)OCC [triethylphosphate]
Henry solubility constant Hcp at 293 K [2, 8]: 270

Structure (SMILES): CC(C)C(=O)OO[N+](=O)[O-] [peroxy-isobutyryl nitrate]
Henry solubility constant Hcp at 293 K ([2]; reference: Kames and Schurath (1995)): 0.0099

Structure (SMILES): c1ccc2c(c1)-c1cccc3cccc-2c13 [benzo[jk]fluorene]
Henry solubility constant Hcp at 293 K ([2]; reference: De Maagd et al. (1998)): 0.91

Structure (SMILES): CCCOP(=O)(OCCC)OCCC [tripropyl phosphate]
Henry solubility constant Hcp at 293 K [2, 8]: 15

Structure (SMILES): Clc1cccc(-c2ccc(Cl)c(Cl)c2Cl)c1Cl [2,2',3,3',4-pentachlorobiphenyl]
Henry solubility constant Hcp [1, 9]: 0.049

Henry solubility constant Hcp ([1]; reference: Buttery et al. (1965)): 0.06 | Henry solubility constant Hcp ([1]; reference: Souchon et al. (2004)): 0.035
Structure (SMILES): CCCCCCC=O [heptanal]

Structure (SMILES): O=COCC(F)(F)F [2,2,2-trifluoroethyl methanoate]
Henry solubility constant Hcp ([1]; reference: Kutsuna et al. (2005)): 0.0054

Structure (SMILES): CC(C)CCO[N+](=O)[O-] [3-methyl-1-butanol nitrate]
Henry solubility constant Hcp ([1]; reference: Hauff et al. (1998)): 0.005

Structure (SMILES): Brc1ccc(Oc2ccc(Br)cc2Br)cc1 [2,4,4'-tribromodiphenyl ether]
Henry solubility constant Hcp ([1]; reference: Cetin and Odabasi (2005)): 0.18 | Henry solubility constant Hcp ([1]; reference: Charles and Destaillats (2005)): 0.12 | Henry solubility constant Hcp ([1]; reference: Long et al. (2017)): 0.16

Structure (SMILES): Clc1ccc(-c2cc(Cl)ccc2Cl)c(Cl)c1 [2,2',4,5'-tetrachlorobiphenyl]
Henry solubility constant Hcp [1, 9]: 0.049

Henry solubility constant Hcp [1, 9]: 0.016
Structure (SMILES): Clc1cc(Cl)c(-c2c(Cl)cc(Cl)c(Cl)c2Cl)cc1Cl [2,2',3,4,4',5',6-heptachlorobiphenyl]

Structure (SMILES): Clc1cc2oc3cc(Cl)c(Cl)cc3c2cc1Cl [2,3,7,8-tetrachlorodibenzofuran]
Henry solubility constant Hcp ([1]; reference: Friesen et al. (1993)): 0.59

Structure (SMILES): C=CCSC [allyl methyl sulfide]
Henry solubility constant Hcp ([1]; reference: Schuhfried et al. (2011)): 0.0042

Henry solubility constant Hcp ([1]; reference: Amoore and Buttery (1978)): 0.12 | Henry solubility constant Hcp ([1]; reference: Kish et al. (2013)): 0.059
Structure (SMILES): CC12CCC(CC1)C(C)(C)O2 [1,3,3-trimethyl-2-oxabicyclo[2.2.2]octane]

Henry solubility constant Hcp ([1]; reference: Hawthorne et al. (1985)): 0.82
Structure (SMILES): O=C1CCCC1 [cyclopentanone]

Structure (SMILES): ClC1=C(Cl)[C@]2(Cl)[C@H]3[C@H](Cl)[C@@H](Cl)C[C@H]3[C@@]1(Cl)C2(Cl)Cl [trans-chlordane]
Henry solubility constant Hcp ([1]; reference: Jantunen and Bidleman (2006)): 0.034

Henry solubility constant Hcp ([1]; reference: Nguyen (2013)): 5000
Structure (SMILES): CC1CNCCN1 (stereo unspecified) [2-methylpiperazine]

Structure (SMILES): FC(F)=CCl [2-chloro-1,1-difluoroethene]
Henry solubility constant Hcp ([1]; reference: Maaßen (1995)): 0.00017 | Henry solubility constant Hcp ([1]; reference: Reichl (1995)): 0.00017

Structure (SMILES): CC(F)(Cl)Cl [1,1-dichloro-1-fluoroethane]
Henry solubility constant Hcp ([1]; reference: Kutsuna (2013)): 0.00029 | Henry solubility constant Hcp ([1]; reference: Maaßen (1995)): 0.00028

Henry solubility constant Hcp ([1]; reference: Ondo and Dohnal (2007)): 1.4
Structure (SMILES): COCCOC [1,2-dimethoxyethane]

Henry solubility constant Hcp ([1]; reference: Jou and Mather (2000)): 8.7e-06 | Henry solubility constant Hcp ([1]; reference: Jönsson et al. (1982)): 8.2e-06
Structure (SMILES): CCCCC [pentane]

Structure (SMILES): COc1c(Cl)cc(Cl)cc1Cl [1,3,5-trichloro-2-methoxybenzene]
Henry solubility constant Hcp ([1]; reference: Wu et al. (2022a)): 0.023

Structure (SMILES): C1CO1 [oxirane]
Henry solubility constant Hcp ([1]; reference: Conway et al. (1983)): 0.058

Henry solubility constant Hcp ([1]; reference: McFall et al. (2020)): 8.6 | Henry solubility constant Hcp ([1]; reference: Sagebiel et al. (1992)): 7.7 and 9.1 | Henry solubility constant Hcp ([1]; reference: Wieland et al. (2015)): 9
Structure (SMILES): COc1ccccc1O [1-hydroxy-2-methoxybenzene]

Henry solubility constant Hcp ([1]; reference: Ioffe et al. (1984)): 0.052
Structure (SMILES): CCC(=O)OC [methyl propanoate]
